Data as given in patent US11974988B2, “Neuroprotective compositions and methods of using the same” (The Board of Supervisors of Louisiana State Univer …, priority 2018, dated 2024).
Entries after “also recorded” stand apart in the source; their conditions may differ. Read-outs that look alike come from different tables or passages of the source.

Legend:
[1] = Tolerability observation after i.p. dosing of SKA-41; details: for tolerability: 10 mg/kg i.p., rats
[2] = system: organotypic hippocampal slice cultures; assay: Oxygen-glucose deprivation (OGD) in organotypic hippocampal slice cultures, propidium iodide staining; format: cell-based, rat; details: 20 min OGD, PI 24 h later; SKA-41 30 μM, MK-801 20 μM, riluzole 30 μM, NBQX 10 μM/AP5 50 μM
Method: OGD is an in vitro model for transient cerebral ischemia. In preliminary studies, we prepared hippocampal slice cultures from P7-8 rat pups. Experiments were performed at 14 DIV, when presynaptic Glu function is maximal and synapse formation and NMDAR subunit expression have reached a developmental stage sufficient to sensitize the slice to excitotoxic injury. Propidium iodide (PI), which binds to DNA in a nonspecific manner by penetrating damaged phospholipoid bilayers, was used to assess neural injury 24 h after OGD. […] SKA-41 was present 30 min prior to OGD, during OGD and during the 24 h recovery period.

KCa channels = details: cited from earlier work
[3] = system: activity-regulated Gln/MeAIB transport (SNAT activity) in hippocampal neurons; assay: Activity-regulated (spontaneous, 4-AP- or K+-stimulated) [14C]-MeAIB transport in primary hippocampal neurons; format: cell-based, rat; set-up: block of transport activity: dose or concentration left out as unconfirmed

SMILES: Nc1nc(-c2ccc(OC(F)(F)F)cc2)cs1 [SKA-41, 4-(4-(Trifluoromethoxy)phenyl)thiazol-2-amine]
- tolerability [1]: well tolerated with no overt toxicity or sedation; also recorded: well tolerated
- tolerability ([1]; listed as SKA41): well tolerated with no overt toxicity or sedation
- untoward effects ([1]; 10-30 mg/kg): did not observe any untoward effects
- OGD-induced neural injury (PI staining) [2]: completely prevents PI staining; also recorded: prevents OGD-induced neural injury
- effect on KCa channels / KCa currents (KCa channels): no effect
- effect on KCa channels / KCa currents (KCa channels; listed as SKA41): no effect; also recorded: inactive
- block of transport activity [3]: ~90%
- inhibition at 10 µM ([3]; Rattus norvegicus, Hippocampal neuron, at 10 μM, read-out: block / inhibition of transport activity): ~90%
- IC50 ([3]; Rattus norvegicus, Hippocampal neuron, hippocampal neurons in vitro, 14C-MeAIB 20 μM, read-out: IC50 to inhibit activity-regulated Gln/MeAIB transport): ~2000 nM
- Active (annotation beside the compound name: active vs inactive derivatives) ([3]; Table 1: SKA-41, and active and inactive derivatives): SKA-41 Active CAS no. 436151-95-0 (Oakwood Chemical)
- inhibition of spontaneous activity-regulated 14C-MeAIB transport, in words ([3]; screens, 10 μM, GABA 2 mM): active; also recorded: blocked spontaneous transport activity; also recorded: inhibited spontaneous transport activity
